Measurements: patent US20260250275A1, “HETEROARYL ENHANCERS OF THE PARTICULATE GUANYLYL CYCLASE RECEPTOR A” (University of Florida Research Foundation, Incorporated, priority 2022, published 2026)
Where two headings read alike, the source gives them in different places. Blank lines part the entries; values can stand above or below the compound they belong to.

Assays:
human GC-A = molecular target: T1, human GC-A (Homo sapiens, UniProt P16066); experiment: cGMP potentiation (HTRF) in human GC-A overexpressing HEK293 cells with EC20 ANP; assay type: cell-based; conditions: for LLE (lipophilic ligand efficiency = EC50−cLogP): calculated from EC50 and cLogP; for Emax: HEK293, 100% = saturating ANP (10 nM), 0% = EC20 ANP
T1 construct: host or cells: HEK293
T1 sequence (P16066 33-1061): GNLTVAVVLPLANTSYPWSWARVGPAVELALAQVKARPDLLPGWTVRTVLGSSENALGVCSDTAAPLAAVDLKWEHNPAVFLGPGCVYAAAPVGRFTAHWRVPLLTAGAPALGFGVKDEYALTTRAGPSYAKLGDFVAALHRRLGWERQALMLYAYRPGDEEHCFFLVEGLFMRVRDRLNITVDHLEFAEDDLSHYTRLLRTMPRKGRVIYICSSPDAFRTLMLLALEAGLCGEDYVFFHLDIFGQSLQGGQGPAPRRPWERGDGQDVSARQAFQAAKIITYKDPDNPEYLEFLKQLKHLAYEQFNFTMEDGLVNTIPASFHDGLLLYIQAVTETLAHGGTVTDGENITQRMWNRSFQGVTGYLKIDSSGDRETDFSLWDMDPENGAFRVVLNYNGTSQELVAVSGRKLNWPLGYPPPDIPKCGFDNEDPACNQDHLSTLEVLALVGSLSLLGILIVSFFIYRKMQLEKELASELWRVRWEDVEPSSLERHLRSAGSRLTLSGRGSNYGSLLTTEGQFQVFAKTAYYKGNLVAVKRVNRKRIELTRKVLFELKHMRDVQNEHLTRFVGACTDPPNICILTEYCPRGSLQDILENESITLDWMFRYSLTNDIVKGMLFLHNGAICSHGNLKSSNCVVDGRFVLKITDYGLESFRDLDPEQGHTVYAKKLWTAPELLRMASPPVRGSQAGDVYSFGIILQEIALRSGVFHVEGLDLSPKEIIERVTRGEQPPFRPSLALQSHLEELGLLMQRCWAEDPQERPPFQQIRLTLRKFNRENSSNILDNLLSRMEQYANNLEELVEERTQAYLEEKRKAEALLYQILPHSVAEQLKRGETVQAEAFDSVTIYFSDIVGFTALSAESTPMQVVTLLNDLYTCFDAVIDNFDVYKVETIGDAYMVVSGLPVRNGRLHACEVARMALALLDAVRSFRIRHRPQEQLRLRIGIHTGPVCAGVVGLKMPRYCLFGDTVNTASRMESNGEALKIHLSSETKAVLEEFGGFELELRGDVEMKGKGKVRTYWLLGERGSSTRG
T1 sequence (P01160 124-151 partner limits assumed): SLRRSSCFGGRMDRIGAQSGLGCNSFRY

[1] = cited from earlier work
[2] = potentiation of cGMP in presence of EC20 ANP (20 pM), Tables 1-7, read-out: EC50

LLE (lipophilic ligand efficiency = EC50−cLogP) (human GC-A): 2.51
SMILES: CN(C)CCN1CCCCC1C(=O)Nc1nc2c(F)cc(F)cc2s1 (centres unmarked) [JUF-S2-003]

LLE (lipophilic ligand efficiency = EC50−cLogP) (human GC-A): 2.69
SMILES: COc1ccc(-c2csc(NC(=O)C3CCCN(CCN(C)C)C3)n2)cc1 (centres unmarked) [JUF-S7-013]

Emax (human GC-A): 91 to 96%
EC50 (human GC-A; [2]): 1500 to 2600 nM
SMILES: CN(C)C1CCN(CC(=O)Nc2nc3c(F)cc(F)cc3s2)CC1 [JUF-S10-004]

Emax (human GC-A): 87 to 97%
SMILES: N[C@@H]1CCCC(C(=O)Nc2nc3c(F)cc(F)cc3s2)C1 (some centres unmarked) [JUF-S12-001A]

EC50 (human GC-A; [2]): 700 to 3100 nM
SMILES: N[C@@H]1CCC[C@H](C(=O)Nc2nc3c(F)cc(F)cc3s2)C1 [JUF-S12-001A]

EC50 (human GC-A; [2]): > 5000 nM
SMILES: CN(C)CCN[C@@H]1CCC[C@@H](C(=O)Nc2nc3c(F)cc(F)cc3s2)C1 [JUF-S12-002]

Emax values of internal control (FIG. 2) (human GC-A; titrated on each 384-test plate): 80-100 % response
EC50 (human GC-A; titrated on each 384-test plate, read-out: Acceptable EC50 values of internal control (FIG. 2)): 200 to 600 nM
SMILES: CN(C)CCN1CCCC(C(=O)Nc2nc3c(F)cc(F)cc3s2)C1 (centres unmarked) [MCUF 651, reference compound]

SMILES: CN(C)CCN1CCCC(C(=O)Nc2nc3c(F)cc(F)cc3s2)C1 (centres unmarked) [MCUF-651]
Activity in vivo [1]: active in vivo
Oral bioavailability ([1]; in vivo, po): orally bioavailable
